Assay results: US8580776B2, “Compositions and methods for treating neurodegenerating diseases” (The Board of Trustees of the University of Illinois, priority 2007, dated 2013)

Legend:
neprilysin (NEP) = test: QPCR of neprilysin mRNA in brain samples; assay type: in vivo, mice; conditions: cortical samples, versus vehicle
Description: (§1) Total cytoplasmic RNA from tissues was isolated using TRIZOL reagent, (Invitrogen/GIBCO); aliquots were converted to cDNA using random hexamer primers, and mRNA levels were estimated by quantitative touchdown PCR (QPCR). PCR conditions were 35 cycles of denaturation at 94° C. for 10 s; annealing at 58-64° C. for 15 s; and extension at 72° C. for 20 s on a Corbett Rotorgene Real-Time PCR unit (Corbett, Australia). PCR was done using Taq DNA Polymerase (Invitrogen), and contained SYBR Green (SybrGreen1 10,000× concentrate, diluted 1:10,000; Molecular Probes, Eugene, Oreg.). Relative mRNA concentrations were calculated from the takeoff point of reactions using manufacturer's software, and were normalized to α-tubulin, β-actin, and glyceraldehyde-3-phosphate dehydrogenase (GDH). Melting curve analysis and agarose gel electrophoresis ensured production of single and corrected size products. The primers used were: […]
(§2) Comparative real time RT-PCR (or quantitative PCR, QPCR) was used to measure mRNA levels of the Aβ degrading enzymes neprilysin (Nep) and insulin degrading enzyme (IDE) in brain samples from vehicle and DSP4 treated mice (FIG. 4A). […] To assess the effects of dose, mouse neuronal N2A cells were incubated with increasing does of NA for 24 hr after which NEP activity was measured (FIG. 4D, data is mean±sd and is from n=3 samples). […]

APP = test: Western blot of APP holo-protein and C-terminal fragments in brain extracts; assay type: in vivo, mice; conditions: cortical lysates, versus vehicle
Description: (§3) Brain tissue was homogenized in 8M urea. Total protein concentration was determined using the Bradford assay and BSA as standard. Proteins were separated on 8 or 15% SDS page gels, transferred to PVDF membrane and incubated with antibodies: anti-APP^645-694 G369 (1:4000), anti α-tubulin (T-9026, Sigma) (1:5000). Signals were detected using the ECL Kit (Amersham), band intensities calculated using Image J software (ImageJ 1.31V), and normalized to α-tubulin values.

[1] = tested on: insulin degrading enzyme (IDE); test: QPCR of insulin degrading enzyme mRNA in brain samples; assay type: in vivo, mice; conditions: cortical samples, versus vehicle
Description: as §1, §2

[2] = tested on: tyrosine hydroxylase (TH); test: QPCR of tyrosine hydroxylase mRNA in DSP4-treated rats; assay type: in vivo, rat
Description: In this experiment, the effects of DSP4 on tyrosine hydroxylase (TH) and IkBα expression were analyzed. Adult rat Sprague Dawley rats were treated with the selective neurotoxin DSP4 to lesion locus ceruleus (LC) noradrenergic neurons and deplete cortical NA levels as described in Example 1.
RNA samples from control or DSP4-treated rats (n=4 each) were converted to cDNA and analyzed by QPCR for relative levels of tyrosine hydroxylase (TH) (FIG. 6A) in the locus ceruleus (LC).
Total cytoplasmic RNA from tissues was prepared from cells using TRIZOL reagent according to manufacturer procedures (Invitrogen/GIBCO); aliquots were converted to cDNA using random hexamer primers, and mRNA levels were estimated by quantitative touchdown PCR (QPCR). Conditions were 35 cycles of denaturation at 94° C. for 10 s; annealing at 58-64° C. for 15 s; and extension at 72° C. for 20 s on a Corbett Rotorgene Real-Time PCR unit (Corbett, Australia). The PCR mastermix contained SYBR Green (1 μl diluted 1:10,000 SybrGreen I 10,000× concentrate, Molecular Probes, Eugene, Oreg.). Relative mRNA concentrations were calculated from the takeoff point of reactions using manufacturer's software. Melting curve analysis and agarose gel electrophoresis were performed to ensure production of single and corrected size products. Relative mRNA values were normalized to housekeeping genes, either α-Tubulin (α-Tub), β-Actin (βAct) or glyceraldehyde-3-phosphate dehydrogenase (GDH). The primers used for QPCR (all listed 5′ to 3′) were: […]
After acclimation (7-10 days), rats received two intraperitoneal injections (one week apart) of either N-(2-chloroethyl)-N-ethyl-2 bromobenzylamine (DSP4, 5 mg/kg) dissolved in PBS or PBS alone (FIG. 6A). Four weeks after the second treatment, the animals were anesthetized with pentobarbital (50 mg/kg i.p.), and placed in a stereotaxic frame (Stoelting, USA) on a heating blanket. Body temperature was maintained at 37±0.5° C. for the time of surgery. […]

BACE1, PSEN1, Adam10 = test: Western blot and PCR analysis of APP processing enzymes in 9 month-old mice; assay type: in vivo; conditions: data not shown
Description: as §3, §1

Question: `CCN(CCCl)Cc1ccccc1Br` [DSP4, N-(2-chloroethyl)-N-ethyl-2-bromobenzylamine] was tested. Which “reduction of NEP mRNA levels” value (neprilysin (NEP)) did it give?
Answer: approximately 20%

Question: And the “levels of holoAPP” value (APP)?
Answer: no effect

Question: What about the “levels of insulin degrading enzyme (IDE) mRNA” value [1] of the same compound?
Answer: small, non-significant reductions

Question: And the “TH mRNA levels in the LC” value ([2]; DSP4-treated rats, n=4)?
Answer: 57 % versus control levels

Question: And the “reduction in cortical TH mRNA levels” value ([2]; not statistically significant, P>0.05)?
Answer: 25%

Question: What about the “reduction of LC TH mRNA” value ([2]; versus control values, n=4) of the same compound?
Answer: 43%

Question: And the “BACE1, PSEN1, Adam10 mRNA, BACE1 protein, human APP mRNA levels” value (BACE1, PSEN1, Adam10)?
Answer: did not reveal any significant changes
